Experimental data reported in patent US20190083420A1, “METHODS OF USING (2R, 6R)-HYDROXYN[…] (2S, 6S)-HYDROXYN[…] THE TREATMENT OF DEPRESSION, ANXIETY, ANHEDONIA, FATIGUE, SUICIDAL IDEATION, AND POST TRAUMATIC STRESS DISORDERS” (The Uinited States of America, as represented by the …, priority 2016, published 2019).

Experiments:
[1] = Tissue distribution of ketamine and metabolites (plasma and brain levels)
Experimental: Mice were euthanized by a 30-sec exposure to 3% isoflurane and decapitated at 10, 30, 60, 240 or 480 minutes following drug administration. Trunk blood was collected in EDTA-containing tubes and centrifuged at 8000 rpm for 6 min (4° C.). Plasma was collected and stored at −80° C. until analysis. Whole brains were simultaneously collected, rinsed with phosphate-buffered saline, immediately frozen in dry ice and stored at −80° C. until analysis.
The concentrations of ketamine and its metabolites in plasma and brain tissue were determined by achiral liquid chromatography-tandem mass spectrometry. For plasma samples, the calibration standards for (R,S)-ketamine, (R,S)-norketamine, (2R,6R;2S,6S)-HNK and (R,S)-DHNK ranged from 10,000 ng/ml to 19 ng/ml. The quantification of (R,S)-ketamine, (R,S)-norketamine, (R,S)-DHNK, and the HNK stereoisomers was accomplished by calculating area ratios using D4-ketamine (10 μl of 10 μg/ml solution) as the internal standard. Whole brains were suspended in 990 μl of water:methanol (3:2, v/v), D4-ketamine (10 μl of 10 μg/ml) added and the resulting mixture homogenized on ice with a polytron homogenizer and centrifuged at 21,000×g for 30 min. The supernatant was collected and processed using 1 ml Oasis HLB solid phase extraction cartridges (Waters Corp., Waltham, Mass.). The cartridges were preconditioned with 1 ml of methanol, followed by 1 ml of water and then 1 ml ammonium acetate [10 mM, pH 9.5]. The supernatants were added to the cartridges, followed by 1 ml of water and the compounds were eluted with 1 ml of methanol. The eluent was transferred to an autosampler vial for analysis. QC standards for the analysis of (R,S)-ketamine, (R,S)-norketamine, (R,S)-DHNK and (2R,6R;2S,6S)-HNK ranged from 10,000 ng/ml to 19 ng/ml, and quantification was accomplished using D4-(R,S)-ketamine as the internal standard. QC standards were prepared daily by adding 10 μl of the appropriate standard solution and 10 μl of internal standard solution (100 ng/ml) to methanol.

[2] = plasma of humans; cited from earlier work
NMDA receptor = details: (S)-ketamine versus (R)-ketamine; cited from earlier work
male CD-1 mice [3] = test: Learned helplessness (LH); type: in vivo; details: single injection; for antidepressant-like effect in learned helplessness (escape failures): test 24 hours after administration
Description: (§1) Male CD-1 mice (8-10 weeks old, Charles River Laboratories, Mass., USA) were housed in groups of four-five per cage with a constant 12-hour light/dark cycle (lights on/off at 07:00/19:00). Food and water were available ad libitum. Mice acclimatized to the new environment for seven days prior to the start of the experiments. For the whole-cell NMDA current electrophysiological recordings, male Sprague-Dawley rats (housed three per cage; Charles River, Wilmington, Mass.) were used. EPSC recording were done from rats at postnatal day 24-25. All experimental procedures were approved by the University of Maryland, Baltimore Animal Care and Use Committee and were conducted in full accordance with the National Institutes of Health Guide for the Care and Use of Laboratory Animals.
The LH paradigm consisted of three different phases, i.e., inescapable shock training, LH screening, and the LH test. For the inescapable shock portion of the test (Day 1), the animals were placed in one side of two-chambered shuttle boxes (34 cm height×37 cm width×18 cm depth; Coulbourn Instruments, PA, USA), with the door between the chambers closed. Following a five-min adaptation period, 120 inescapable foot-shocks (0.45 mA, 15 sec duration, randomized average inter-shock interval of 45 sec) were delivered through the grid floor. During the screening session (Day 2), the mice were placed in one of the two chambers of the apparatus for 5 min. A shock (0.45 mA) was then delivered, and the door between the two chambers was raised simultaneously. Crossing over into the second chamber terminated the shock. […] A total of 30 screening trials of escapable shocks were presented to each mouse with an average of 30 sec delay between each trial. Mice that developed helplessness behavior (>5 escape failures during the last 10 screening shocks) were administered with the respective drug 24 hours following screening (Day 3). During the LH test phase (Day 4), the animals were placed in the shuttle boxes and, after a 5-min adaptation period, a 0.45 mA shock was delivered concomitantly with door opening for the first five trials, followed by a 2-sec delay for the next 40 trials. Crossing over to the second chamber terminated the shock. […] A total of 45 trials of escapable shock were presented to each mouse with 30 sec inter-trial intervals. The number of escape failures was recorded for each mouse.

male CD-1 mice [4] = test: Novelty-suppressed feeding (NSF); type: in vivo; details: i.p.
Description: as §1
Mice were singly housed and food-deprived for twenty-four hours in freshly-made home-cages. Two normal chow diet pellets were placed on a square food platform (10×10 cm) in the center of an open-field arena (40×40 cm). […] The time needed for the mice to take a bite of food was recorded over a 10 min period by a trained observer blind to the treatment groups. After the test, the mice were returned to their home cage containing pre-weighed food pellets, and latency to bite the food as well as consumption was recorded for a period of 10 min.

male CD-1 mice [5] = test: Forced-swim test (FST); type: in vivo; details: 1- and 24-hours post-injection, times not separated, i.p.
Description: as §1
Mice were tested in the FST 1 hour and/or 24 hours post-injection. During the FST, mice were subjected to a 6-min swim session in clear Plexiglass cylinders (30 cm height×20 cm diameter) filled with 15 cm of water (23±1° C.). The FST was performed in normal light conditions (800 Lux). Sessions were recorded using a digital video-camera. Immobility time, defined as passive floating with no additional activity other than that necessary to keep the animal's head above water, was scored for the last 4 min of the 6-min test by a trained observer blind to the treatment.
All drugs were dissolved in 0.9% saline, and administered intraperitoneally (i.p.) in a volume of 7.5 ml/kg of body mass. Corticosterone (4-pregnen-11β, 21-diol-3, 20-dione 21-hemisuccinate; Steraloids, Newport, R.I., USA) was dissolved in tap water. For the electrophysiology recordings, test drugs were diluted in artificial cerebrospinal fluid (AC SF).

mice [6] = test: Open field test (locomotor activity); type: in vivo; details: 1 hour after i.p. drug
Experimental: Mice were placed into individual open-field arenas (50 cm length×50 cm width×38 cm height; San Diego Instruments, San Diego, Calif., USA) for a 60-min habituation period. Mice were then injected with the respective drug and assessed for locomotor activity for another 60 min. Distance travelled was analyzed using TopScan v2.0 (CleverSys, Inc, Reston, Va., USA).

mice [7] = test: Accelerating rotarod (motor coordination); type: in vivo; details: 5-60 min post-injection, i.p.
Experimental: The rotarod test was conducted to compare the effects of ketamine, (2S,6S)-HNK and (2R,6R)-HNK on motor coordination. The experiment consisted of two phases: training phase (4 days) and a test phase (1 day). On each of the training days five trials (trial time: 3 min) were conducted with an inter-trial interval of two min Mice were individually placed on the rotarod apparatus (HTC Life Science; Woodland Hills, Calif., USA) and the rotor (3.75 inch diameter) accelerated from 5-20 RPM over a period of three minutes. Latency to fall was recorded for each trial. Animals with an average of <100 sec of latency to fall during the last training day were excluded from the experiment. On the test day (day 5), mice received (i.p.) injections of saline, (R,S)-KET (10 mg/kg), (2S,6S)-HNK (25 or 125 mg/kg) or (2R,6R)-HNK (2.5 or 125 mg/kg) and were tested in the rotating rod 5-. 10-, 15-, 20-, 30- and 60-min post-injection using the same procedure described for the training days.

Compound: N[C@@]1(c2ccccc2Cl)CCC[C@@H](O)C1=O [(2S,6S;2R,6R)-HNK, (2S,6S;2R,6R)-hydroxynorketamine]
- brain levels following ketamine administration, female mice compared to males ([1]; brain): three fold higher
- metabolite found in plasma and brain following ketamine administration ([1]; mice, (R,S)-KET 10 mg/kg i.p.): major HNK metabolite
- metabolite found in plasma following ketamine administration [2]: major HNK metabolite

Compound: CN[C@]1(c2ccccc2Cl)CCCCC1=O [(S)-ketamine]
- potency as inhibitor of the NMDA receptor relative to (R)-ketamine (NMDA receptor): ~4 fold

Compound: CN[C@@]1(c2ccccc2Cl)CCCCC1=O [(R)-ketamine, reference compound]
- brain levels of (R)-ketamine compared to (S)-ketamine ([1]; brain, after (S)- and (R)-KET): does not result from higher brain levels
- antidepressant-like effect in learned helplessness (escape failures) (male CD-1 mice [3]): greater potency
- antidepressant-like effect in novelty-suppressed feeding (latency to feed) (male CD-1 mice [4]): greater potency
- antidepressant effect in the FST (immobility time) (male CD-1 mice [5]): greater potency

Compound: N[C@]1(c2ccccc2Cl)CCC[C@H](O)C1=O [(2S,6S)-HNK, (2S,6S)-2-amino-2-(2-chlorophenyl)-6-hydroxycyclohexanone]
- brain hydroxynorketamine levels after administration of (2S,6S)-HNK versus (2R,6R)-HNK ([1]; brain): higher brain hydroxynorketamine levels compared to (2R,6R)-HNK
- doses with antidepressant-like effects in learned helplessness (male CD-1 mice [3]): 75 mg/kg
- antidepressant-like effect in learned helplessness (escape failures) (male CD-1 mice [3]): induced antidepressant-like effects
- locomotor activity in the open-field test (mice [6]): increased locomotor activity
- locomotor activity in the open-field test (mice [6]; listed as (2S,6S)-hydroxynorketamine): dose-dependently changed locomotor activity
- motor coordination in the rotarod (mice [7]): motor incoordination
- motor coordination in the rotarod (mice [7]; listed as (2S,6R)-HNK): induced motor incoordination
